{"source": "patent US20180207165A1", "about": "“METHODS AND COMPOSITIONS FOR STIMULATING BENEFICIAL BACTERIA IN THE GASTROINTESTINAL TRACT” (Rijksuniversiteit Groningen, priority 2012, published 2018)", "key": {"F. prausnitzii": {"system": "F. prausnitzii", "test": "Stability of F. prausnitzii synbiotic formulations after exposure to ambient air (CFU count)", "design": "species or system Faecalibacterium prausnitzii", "conditions": "ingredient in lyophilized formulation", "experimental": "To produce a formulation with living faecalibacteria that are stable for at least 24 h under aerobic conditions, series of experiments were performed with different combinations of ingredients. Faecalibacteria were grown overnight in broth culture medium, centrifuged and the pellet was washed with anaerobic phosphate buffered saline (PBS) and centrifuged again. The mixtures were frozen at −20° C. and subsequently lyophilized.\nAfter lyophilizing, the formulations were exposed to air for the indicated time periods. The preparations were re-suspended in phosphate buffer and a 10 fold-dilution series was plated on anaerobic growth medium agar. The Colony-forming units were counted and compared with a non exposed t=0 time point.\nThe lyophilized granules obtained according to step 2 were stored in air tight containers under ambient aerobic conditions. For stability and viability studies granules were exposed to the ambient air at defined period up to 24 h. After aerobic exposures the granules were processed anaerobically under anaerobic tent. The granules were diluted and rehydrated in oxygen free phosphate buffered saline (pH 7.2) supplemented with 0.05% cysteine and ten-fold dilution series were plated on YCFAG agar medium. Colony forming units were determined by counting the colonies formed on the agar plates after 24 h of incubations at 37° C."}, "Enterococci": {"system": "Enterococci", "test": "Riboflavin intervention trial: count of Enterococci in fecal samples", "type": "in vivo, human", "conditions": "during the intervention, 100 mg/day riboflavin", "experimental": "(§1) A human intervention study was performed to investigate the effect of riboflavin on the numbers of Faecalibacterium prausnitzii in the gut. A group of 8 volunteers (body weight 60 to 90 kg) were asked to take 1 oral dose of 100 mg riboflavin supplement per day for 14 days.\n(§2) Two samples were taken in a period of two weeks before the intake, as baseline samples, two samples (one per week) were taken during the intake and one sample a week after intake. The number of F. prausnitzii and that of other bacterial groups were determined by FISH with a specific probes as describe before (Harmsen et al. Appl Environ Microbiol. 2002 June; 68(6):2982-90). The numbers of faecalibacteria of the samples taken before and during the intake were averaged and all samples were plotted in FIG. 1."}, "[1]": {"system": "Faecalibacterium prausnitzii", "test": "Riboflavin intervention trial: FISH count of F. prausnitzii in fecal samples", "type": "in vivo, human", "experimental": "as §1, §2"}, "Clostridium group XIVa": {"system": "Clostridium group XIVa", "test": "Riboflavin intervention trial: FISH count of Clostridium group XIVa in fecal samples", "type": "in vivo, human", "conditions": "8 volunteers, 100 mg/day oral riboflavin for two weeks", "experimental": "as §1, §2"}, "[2]": {"test": "Butyrate production in human volunteers on oral riboflavin", "type": "in vivo", "conditions": "orally administered riboflavin"}, "[3]": {"system": "Enterobacteriaceae, E. coli-like bacteria", "test": "Riboflavin intervention trial: count of E. coli-like bacteria in fecal samples", "type": "in vivo, human", "experimental": "as §1, §2"}}, "data": [{"smiles": "O=c1c(O)c(-c2ccc(O)c(O)c2)oc2cc(O)cc(O)c12", "note": "[quercitin]", "values": [{"measurement": "protective effect on faecalibacteria against ambient air exposure", "setting": "F. prausnitzii", "result": "not observed"}]}, {"smiles": "Cc1cc2nc3c(=O)[nH]c(=O)nc-3n(C[C@H](O)[C@H](O)[C@H](O)CO)c2cc1C", "note": "[riboflavin]", "values": [{"measurement": "number of Enterococci in fecal samples", "setting": "Enterococci", "result": "did not increase during the intervention"}, {"measurement": "protective effect on faecalibacteria against ambient air exposure", "setting": "F. prausnitzii", "result": "provide the protective effect"}, {"measurement": "percentage F. prausnitzii of the total bacteria", "setting": "[1]; 8 volunteers, 100 mg/day oral riboflavin for 14 days, feces", "result": "increased in 7 out of 8 samples"}, {"measurement": "number of faecalibacteria in fecal samples", "setting": "[1]; 8 volunteers, 1 oral dose of 100 mg riboflavin per day for 14 days, pre, during, post intake, FISH", "result": "increased during intake and decreased again when the intake ceases"}, {"measurement": "ratio faecalibacteria/Clostridium group XIVa", "setting": "[1]; calculated from before and from during intake, 100 mg/day riboflavin", "result": "increased in all cases"}, {"measurement": "number of Clostridium group XIVa bacteria in fecal samples", "setting": "Clostridium group XIVa", "result": "did not increase"}, {"measurement": "butyrate production", "setting": "[2]", "result": "enhanced"}, {"measurement": "number of E. coli(-like bacteria) in fecal samples", "setting": "[3]; during riboflavin intake, 100 mg/day for two weeks, all individuals tested", "result": "decreased or remained the same"}, {"measurement": "ratio of faecalibacteria to E. coli-like bacteria", "setting": "[3]; upon administration of riboflavin, 100 mg/day", "result": "the ratio shifted towards faecalibacteria"}]}, {"smiles": "N[C@@H](CS)C(=O)O", "note": "[cysteine]", "values": [{"measurement": "protective effect on faecalibacteria against ambient air exposure", "setting": "F. prausnitzii", "result": "provide the protective effect"}]}, {"smiles": "O=C1O[C@H]([C@@H](O)CO)C(O)=C1O", "note": "[ascorbic acid]", "values": [{"measurement": "protective effect on faecalibacteria against ambient air exposure", "setting": "F. prausnitzii", "result": "not observed"}]}]}
